# PMC8155467 (ACS Central Science, 2021)
# Columns and labels:
# AKR1B10_C299A mutant = AKR1B10_C299A mutant (Homo sapiens, UniProt O60218, C299A); assay: AKR1B10 Inhibition Assay; type: biochemical; conditions: VC59 0.5-50 µM, 1 h; tolrestat, isolithocholic acid 500 nM, 15 min
# AKR1B10 = AKR1B10 (Homo sapiens, UniProt O60218); conditions: cited from earlier work
# Sequence of AKR1B10 (O60218 whole entry): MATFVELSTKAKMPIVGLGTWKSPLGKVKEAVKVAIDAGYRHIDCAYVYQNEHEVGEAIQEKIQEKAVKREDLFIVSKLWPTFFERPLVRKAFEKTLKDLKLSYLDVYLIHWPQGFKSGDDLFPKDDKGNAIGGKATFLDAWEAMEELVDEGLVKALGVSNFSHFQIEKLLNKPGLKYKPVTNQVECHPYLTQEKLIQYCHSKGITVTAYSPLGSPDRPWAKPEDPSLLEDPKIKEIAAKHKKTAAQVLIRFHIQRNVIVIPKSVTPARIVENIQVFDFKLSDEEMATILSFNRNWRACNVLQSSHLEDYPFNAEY
# Sequence of AKR1B10_C299A mutant (O60218 whole entry C299A): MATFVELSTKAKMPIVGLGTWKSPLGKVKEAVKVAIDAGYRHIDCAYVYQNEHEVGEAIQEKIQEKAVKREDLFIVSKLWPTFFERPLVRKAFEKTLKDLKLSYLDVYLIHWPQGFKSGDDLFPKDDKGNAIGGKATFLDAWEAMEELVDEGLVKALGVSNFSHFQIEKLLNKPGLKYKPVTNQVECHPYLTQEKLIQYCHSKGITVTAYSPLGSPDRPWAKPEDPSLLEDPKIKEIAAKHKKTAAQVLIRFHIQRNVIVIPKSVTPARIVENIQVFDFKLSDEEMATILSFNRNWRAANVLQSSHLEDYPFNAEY
inhibition of AKR1B10_C299A mutant reductase activity (NADPH absorbance assay) (AKR1B10_C299A mutant),SMILES,inhibition of AKR1B10 activity by natural electrophilic compounds engaging C299 (AKR1B10)
maintained sensitivity,C[C@H](CCC(=O)O)[C@H]1CC[C@H]2[C@@H]3CC[C@@H]4C[C@@H](O)CC[C@]4(C)[C@H]3CC[C@]12C [isolithocholic acid],–
–,CCCCC[C@H](O)/C=C/[C@H]1C=CC(=O)[C@@H]1CCCCCCC(=O)O [prostaglandin A1],inhibit AKR1B10 activity
maintained sensitivity,COc1ccc2c(C(=S)N(C)CC(=O)O)cccc2c1C(F)(F)F [tolrestat],–
